Experimental data: patent US20230391765A1, “HETEROBIFUNCTIONAL COMPOUNDS AS DEGRADERS OF ENL” (ICAHN SCHOOL OF MEDICINE AT MOUNT SINAI, priority 2020, published 2023)
Each block holds one compound with its values, some of them ahead of it.

Experiments:
Format in all cases: cell-based
ENL [1] = target: T1, ENL (Homo sapiens, UniProt Q03111); experiment: Western blot of ENL protein levels in MV4; 11 cells; conditions: 11 cells; for effect of proteasome inhibitor MG132 on the ENL degradation induced by the degrader: 1 μM degrader with or without 1 μM MG132 for 6 h; for ENL protein level after long treatment: 1 μM for 48 and 72 h
T1 construct: Cells were lysed and expression of endogenous ENL was assessed by Western blot analysis; host or cells: MV4;11
T1 sequence (Q03111 1-559): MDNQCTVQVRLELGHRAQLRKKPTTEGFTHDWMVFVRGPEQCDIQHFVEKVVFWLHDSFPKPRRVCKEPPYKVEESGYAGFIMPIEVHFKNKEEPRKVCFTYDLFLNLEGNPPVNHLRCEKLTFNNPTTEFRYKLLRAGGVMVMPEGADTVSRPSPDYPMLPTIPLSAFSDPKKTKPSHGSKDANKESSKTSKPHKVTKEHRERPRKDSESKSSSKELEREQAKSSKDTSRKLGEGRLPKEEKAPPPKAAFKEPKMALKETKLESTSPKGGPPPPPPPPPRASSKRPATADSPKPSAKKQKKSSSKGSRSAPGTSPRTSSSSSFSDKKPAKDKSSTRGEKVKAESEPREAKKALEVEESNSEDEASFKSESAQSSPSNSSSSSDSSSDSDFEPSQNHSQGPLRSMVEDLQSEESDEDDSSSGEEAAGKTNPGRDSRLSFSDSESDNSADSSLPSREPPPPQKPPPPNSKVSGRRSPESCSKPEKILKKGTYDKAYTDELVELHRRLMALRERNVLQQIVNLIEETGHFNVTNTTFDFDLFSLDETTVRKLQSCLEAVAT
Method: MV4; 11 cells were treated with DMSO or the indicated compounds (the same panel of ENL degraders as shown in FIG. 4) at 1 μM and 10 μM for 24 h. Cells were lysed and expression of ENL was assessed by Western blot analysis.
DMSO treated cells were used as control.
MV4; 11 cells were treated with LQ076-122, or LQ081-107 at 0.3, 1, 3, 10, and 30 μM for 24 h. DMSO treated cells were used as control. Cells were lysed and expression of ENL and GAS41 was assessed by Western analysis.
MV4; 11 cells were treated with DMSO or the indicated compounds at 1 μM and 10 μM for 6 h. Cells were lysed and expression of endogenous ENL was assessed by Western blot analysis.
Cells were treated with 1 μM of ENL degrader with or without 1 μM proteasome inhibitor MG132 for 6 h.
(§1) ENL degraders were dissolved in DMSO. DMSO with no degraders was used as the control. 1×10^6 leukemia cells were seeded in 5 mL medium. For prescreening of compounds, each test compound was added to the medium at 1 μM and 10 μM. Cells were collected after 24 h treatment. For the concentration-dependent treatment, candidate compounds were added to the medium at a series of concentration as indicated in figures. Cells were collected after 24 h treatment. For the time-course treatment, candidate compounds were added to the medium at a final concentration of 4 μM (MV4; 11 cells) or 8 μM (MOLM13 cells). Cells were collected at the indicated timepoints (in hours: 12, 16, 20, 24 and 36 h).
(§2) After ENL degrader treatment, cells were collected, lysed, and total cell lysates were used for Western blot. The following primary antibodies were used: ENL (Cell Signaling Technology), GAS41 (Santa Cruz), GAPDH (Santa Cruz), β-actin (Sigma). Blots were detected using HRP-conjugated secondary antibodies.

ENL [2] = target: T1, ENL; experiment: Western blot of ENL protein levels in MOLM13 cells; conditions: for ENL protein level after long treatment: 1 μM for 48 and 72 h
Method: MOLM13 cells were treated with LQ076-122 or LQ081-108 at 0, 0.25, 0.5, 1, 1.5, 2, 2.5, 3, 4 and 8 μM for 24 h.
MOLM13 cells were treated with DMSO or 8 μM of LQ076-122 for 12, 16, 20, 24 and 36 h.
MV4; 11, MOLM13 and Jurkat cells were treated with LQ108-69, LQ108-71, LQ108-72, LQ126-62 and LQ126-63 at 0, 1 nM, 10 nM, 100 nM, 1 μM, and 10 μM doses for 6 h. DMSO was used as negative control.
as §1, §2

[3] = tested on: ENL-dependent MV4; 11 cells; experiment: Cell viability (CellTiter-Glo), MV4; 11 cells; conditions: 11 cells, 1.25, 2.5, 5 and 10 μM for 72 h
Method: MV4; 11 (FIG. 13A), MOLM13 (FIG. 13B) and Jurkat (FIG. 13C) cells were seeded at 2×10^5 cells/mL density and treated with DMSO or indicated compounds 0.5, 1, 2 and 4 μM for 72 h. Cell viability was measured using CellTiter-Glo reagent (Promega) and relative cell viability was calculated by normalization to DMSO samples.
(§3) ENL-dependent MV4; 11 cells were seeded at 2×10^5 cells/mL density and treated with DMSO or the indicated compounds at 0, 1.25, 2.5, 5 and 10 μM for 72 h. Cell viability was measured using CellTiter-Glo reagent (Promega) and relative cell viability was calculated by normalization to DMSO samples.
as §3, with “11 and ENL-independent Jurkat” for “11”, “or” for “or the”, “10 nM, 100 nM, 1 μM” for “0, 1.25, 2.5, 5”, “3 days (A) or 6 days (B).” for “72 h.”
MV4; 11 or MOLM13 cells were seeded at 0.2×10^6 cells/mL density. Cells were treated with DMSO or ENL degraders at indicated concentrations. Each treatment was done in triplicates. After 72 h treatment, 100 μL of cell suspension from each treatment was mixed with 25 μL of CellTiter-Glo reagent (Promega) and incubated for 10 min before the luminescence signals were detected on a plate reader.

ENL [4] = target: T1, ENL; experiment: Western blot of ENL protein levels in Jurkat cells; conditions: for ENL protein level after long treatment: 1 μM for 48 and 72 h
Description: […] DMSO was used as negative control.
as §2

Compound: Cn1ncc2cc(C(=O)Nc3ccc4[nH]c(CN5CCC(CCNC(=O)CCCCCCNc6cccc7c6C(=O)N(C6CCC(=O)NC6=O)C7=O)C5)nc4c3)ccc21 (stereo not shown) [LQ076-98, N-(2-((3-(2-(7-((2-(2,6-dioxopiperidin-3-yl)-1,3-dioxoisoindolin-4-yl)amino)heptanamido)ethyl)pyrrolidin-1-yl)methyl)-1H-benzo[d]imidazol-5-yl)-1-methyl-1H-indazole-5-carboxamide]
- reduction of ENL protein levels (ENL [1]; 10 μM, 24 h): effective in reducing ENL protein levels

Compound: Cn1ncc2cc(C(=O)Nc3ccc4[nH]c(CN5CCC(CCNC(=O)CCCCCCCNc6cccc7c6C(=O)N(C6CCC(=O)NC6=O)C7=O)C5)nc4c3)ccc21 (stereo not shown) [LQ076-99, N-(2-((3-(2-(8-((2-(2,6-dioxopiperidin-3-yl)-1,3-dioxoisoindolin-4-yl)amino)octanamido)ethyl)pyrrolidin-1-yl)methyl)-1H-benzo[d]imidazol-5-yl)-1-methyl-1H-indazole-5-carboxamide]
- reduction of ENL protein levels (ENL [1]; 10 μM, 24 h): effective in reducing ENL protein levels

Compound: Cc1ncsc1-c1ccc(CNC(=O)[C@@H]2C[C@@H](O)CN2C(=O)[C@@H](NC(=O)CCCCCCCCCNC(=O)c2ccc(C(=O)Nc3ccc4[nH]c(CN5CCC[C@@H]5C)nc4c3)cc2)C(C)(C)C)cc1 [LQ076-121, N^1-(10-(((S)-1-((2S,4R)-4-hydroxy-2-((4-(4-methylthiazol-5-yl)benzyl)carbamoyl)pyrrolidin-1-yl)-3,3-dimethyl-1-oxobutan-2-yl)amino)-10-oxodecyl)-N^4-(2-(((S)-2-methylpyrrolidin-1-yl)methyl)-1H-benzo[d]imidazol-5-yl)terephthalamide]
- reduction of ENL protein levels (ENL [1]; 10 μM, 24 h): effective in reducing ENL protein levels

Compound: C[C@H]1CCCN1Cc1nc2cc(NC(=O)c3ccc(C(=O)NCCCCCCCCNc4cccc5c4C(=O)N(C4CCC(=O)NC4=O)C5=O)cc3)ccc2[nH]1 (stereo partly drawn) [LQ076-134, N^1-(8-((2-(2,6-dioxopiperidin-3-yl)-1,3-dioxoisoindolin-4-yl)amino)octyl)-N^4-(2-(((S)-2-methylpyrrolidin-1-yl)methyl)-1H-benzo[d]imidazol-5-yl)terephthalamide]
- reduction of ENL protein levels (ENL [1]; 10 μM, 24 h): effective in reducing ENL protein levels

Continued, in another order:

- reduction of ENL protein levels (ENL [1]; 10 μM, 24 h): effective in reducing ENL protein levels
Compound: Cc1ncsc1-c1ccc(CNC(=O)[C@@H]2C[C@@H](O)CN2C(=O)[C@@H](NC(=O)CCCCCCCCNC(=O)c2ccc(C(=O)Nc3ccc4[nH]c(CN5CCC[C@@H]5C)nc4c3)cc2)C(C)(C)C)cc1 [LQ076-120, N^1-(9-(((S)-1-((2S,4R)-4-hydroxy-2-((4-(4-methylthiazol-5-y)benzyl)carbamoyl)pyrrolidin-1-yl)-3,3-dimethyl-1-oxobutan-2-yl)amino)-9-oxononyl)-N^4-(2-(((S)-2-methylpyrrolidin-1-yl)methyl)-1H-benzo[d]imidazol-5-yl)terephthalamide]

- effect of proteasome inhibitor MG132 on the ENL degradation induced by the degrader (ENL [1]): partially blocks the ENL degradation
Compound: Cc1ncsc1-c1ccc(CNC(=O)[C@@H]2C[C@@H](O)CN2C(=O)[C@@H](NC(=O)C2(F)CC2)C(C)(C)C)c(OCC(=O)NCCCCCCCNC(=O)c2ccc3c(c2)[C@H](NC(=O)c2cc(-c4ccc(C(=O)N(C)C)c(O)c4)on2)CC3)c1 [LQ108-63, 5-(4-(dimethylcarbamoyl)-3-hydroxyphenyl)-N-((R)-6-((7-(2-(2-(((2S,4R)-1-((S)-2-(1-fluorocyclopropane-1-carboxamido)-3,3-dimethylbutanoyl)-4-hydroxypyrrolidine-2-carboxamido)methyl)-5-(4-methylthiazol-5-yl)phenoxy)acetamido)heptyl)carbamoyl)-2,3-dihydro-1H-inden-1-yl)isoxazole-3-carboxamide]

- ENL protein level after long treatment (ENL [2]): maintained the ENL protein at low levels
- ENL protein level after long treatment (ENL [4]): maintained the ENL protein at low levels
- effect of proteasome inhibitor MG132 on the ENL degradation induced by the degrader (ENL [1]): partially blocks the ENL degradation
- ENL protein level after long treatment (ENL [1]): maintained the ENL protein at low levels
Compound: Cc1ncsc1-c1ccc([C@H](CC(=O)NCCCCCCNC(=O)c2ccc3c(c2)[C@H](NC(=O)c2cc(-c4ccc(C(=O)N(C)C)c(O)c4)on2)CC3)NC(=O)[C@@H]2C[C@@H](O)CN2C(=O)[C@@H](NC(=O)C2(F)CC2)C(C)(C)C)cc1 [LQ108-69, 5-(4-(dimethylcarbamoyl)-3-hydroxyphenyl)-N—((R)-6-((6-((S)-3-((2S,4R)-1-((S)-2-(1-fluorocyclopropane-1-carboxamido)-3,3-dimethylbutanoyl)-4-hydroxypyrrolidine-2-carboxamido)-3-(4-(4-methylthiazol-5-yl)phenyl)propanamido)hexyl)carbamoyl)-2,3-dihydro-1H-inden-1-yl)isoxazole-3-carboxamide]
- reduction of ENL protein levels (ENL [2]; 1 nM to 10 μM for 6 h): reduced ENL protein levels in a concentration-dependent manner
- suppression of cell growth (relative cell viability) [3]: significantly suppressed MV4; 11 cell growth at low micromolar concentration
- reduction of ENL protein levels (ENL [4]; 1 nM to 10 μM for 6 h): reduced ENL protein levels in a concentration-dependent manner
- reduction of ENL protein levels (ENL [1]; 1 nM to 10 μM for 6 h): reduced ENL protein levels in a concentration-dependent manner

- ENL protein level after long treatment (ENL [2]): maintained the ENL protein at low levels
- ENL protein level after long treatment (ENL [4]): maintained the ENL protein at low levels
- effect of proteasome inhibitor MG132 on the ENL degradation induced by the degrader (ENL [1]): partially blocks the ENL degradation
- ENL protein level after long treatment (ENL [1]): maintained the ENL protein at low levels
Compound: Cc1ncsc1-c1ccc([C@H](CC(=O)NCCCCCCCNC(=O)c2ccc3c(c2)[C@H](NC(=O)c2cc(-c4ccc(C(=O)N(C)C)c(O)c4)on2)CC3)NC(=O)[C@@H]2C[C@@H](O)CN2C(=O)[C@@H](NC(=O)C2(F)CC2)C(C)(C)C)cc1 [LQ108-70, 5-(4-(dimethylcarbamoyl)-3-hydroxyphenyl)-N—((R)-6-((7-((S)-3-((2S,4R)-1-((S)-2-(1-fluorocyclopropane-1-carboxamido)-3,3-dimethylbutanoyl)-4-hydroxypyrrolidine-2-carboxamido)-3-(4-(4-methylthiazol-5-yl)phenyl)propanamido)heptyl)carbamoyl)-2,3-dihydro-1H-inden-1-yl)isoxazole-3-carboxamide]
- suppression of cell growth (relative cell viability) [3]: significantly suppressed MV4; 11 cell growth at low micromolar concentration
